# Source: paper PMC10648349, “Aromatic Diboronic Acids as Effective KPC/AmpC Inhibitors” (Molecules, 2023)
# Tests used:
# [1] = tested on: E. faecalis ATCC 29212; experiment: direct antimicrobial activity (disc-diffusion, MIC, MBC); type: cell-based; conditions: Enterococcus faecalis, ATCC29212
# How it was run: (§1)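 Following CLSI and EUCAST guidance, DMSO-dissolved compounds were tested by broth MIC, by minimal bactericidal (bacteria) or fungicidal (yeast) concentration, and by disc diffusion at 0.4 mg per disc. Comparators were fluconazole (yeasts), linezolid (Gram-positives) and nitrofurantoin (Gram-negative rods).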
# [2] = tested on: E. faecium ATCC 6057; experiment: as above; type: cell-based; conditions: Enterococcus faecium, ATCC6057
# How it was run: as §1
# [3] = tested on: S. aureus ATCC 43300 MRSA; experiment: as above; type: cell-based; conditions: Staphylococcus aureus
# How it was run: as §1
# [4] = tested on: S. aureus ATCC 6538P; experiment: as above; type: cell-based; conditions: Staphylococcus aureus, ATCC6538P; for zone of inhibition at 0.4 mg/disc: 0.4 mg per disc, 9 mm disc (linezolid 0.03 mg, 6 mm disc), - no zone, read-out: Diameter of inhibition zone
# How it was run: as §1
# [5] = tested on: S. epidermidis ATCC 12228; experiment: as above; type: cell-based; conditions: Staphylococcus epidermidis, ATCC12228; for zone of inhibition at 0.4 mg/disc: 0.4 mg per disc, 9 mm disc (linezolid 0.03 mg, 6 mm disc), - no zone, read-out: Diameter of inhibition zone
# How it was run: as §1
# [6] = tested on: B. subtilis ATCC 6633; experiment: direct antimicrobial activity (disc-diffusion); type: cell-based; conditions: Bacillus subtilis, ATCC6633; 0.4 mg per disc, 9 mm disc (linezolid 0.03 mg, 6 mm disc); - no zone; read-out: Diameter of inhibition zone
# How it was run: as §1
# [7] = tested on: C. parapsilosis ATCC 22019; experiment: antifungal activity (disc-diffusion, MIC, MFC); type: cell-based, Candida parapsilosis; conditions: Lodderomyces parapsilosis, ATCC22019; for MIC: fluconazole by Etest
# How it was run: as §1
# [8] = tested on: C. guilliermondii IBA 155; experiment: antifungal activity (disc-diffusion, MIC, MFC); type: cell-based, Candida guilliermondii; conditions: Meyerozyma guilliermondii, IBA155; for MIC: fluconazole by Etest
# How it was run: as §1
# [9] = tested on: C. albicans ATCC 90028; experiment: antifungal activity (disc-diffusion, MIC, MFC); type: cell-based; conditions: Candida albicans, ATCC90028; fluconazole by Etest
# How it was run: as §1
# [10] = tested on: C. tropicalis ATCC 750; experiment: antifungal activity (disc-diffusion, MIC, MFC); type: cell-based; conditions: Candida tropicalis, ATCC750; fluconazole by Etest
# How it was run: as §1
# [11] = tested on: C. tropicalis IBA 171; experiment: antifungal activity (disc-diffusion, MIC, MFC); type: cell-based; conditions: Candida tropicalis, IBA171; fluconazole by Etest
# How it was run: as §1
# [12] = tested on: S. cerevisiae ATCC 9763; experiment: antifungal activity (disc-diffusion, MIC, MFC); type: cell-based; conditions: Saccharomyces cerevisiae, ATCC9763; for MIC: fluconazole by Etest
# How it was run: as §1
# [13] = tested on: E. coli 76 KPC-2(+); experiment: MIC of tested agent alone, microdilution; type: cell-based; conditions: Escherichia coli; read-out: MIC of agent alone
# How it was run: (§2)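 Broth microdilution checkerboard: β-lactam in seven two-fold dilutions (1–64 mg/L) against tested agent or PBA in three two-fold dilutions (4–16 mg/L). Antibiotic MICs were read at each agent level, with agent-alone MICs run in parallel by microdilution.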
# [14] = tested on: E. coli 77 CMY-2(+); experiment: MIC of tested agent alone, microdilution; type: cell-based; conditions: Escherichia coli; read-out: MIC of agent alone
# How it was run: as §2
# [15] = tested on: K. pneumoniae 81 KPC-3(+); experiment: MIC of tested agent alone, microdilution; type: cell-based; conditions: Klebsiella pneumoniae; read-out: MIC of agent alone
# How it was run: as §2
# [16] = tested on: K. pneumoniae 83 KPC-3(+), CTX-M-3(+); experiment: MIC of tested agent alone, microdilution; type: cell-based; conditions: Klebsiella pneumoniae; read-out: MIC of agent alone
# How it was run: as §2
# [17] = tested on: K. pneumoniae ATCC BAA-1705 KPC-2(+); experiment: MIC of tested agent alone, microdilution; type: cell-based; conditions: Klebsiella pneumoniae, ATCCBAA1705; read-out: MIC of agent alone
# How it was run: as §2
# [18] = tested on: P. aeruginosa MUW 700 AmpC(+); experiment: MIC of tested agent alone, microdilution; type: cell-based; conditions: Pseudomonas aeruginosa; read-out: MIC of agent alone
# How it was run: as §2
# [19] = tested on: K. pneumoniae ATCC BAA 1705 KPC-2-positive; experiment: combination disc test CDT-KPC; type: cell-based; conditions: Klebsiella pneumoniae, BAA1705, read-out: Diameter of inhibition zone, MEM-10 disc with agent; for zone of inhibition at 300 µg/disc: agent 0.3 mg per disc
# [20] = tested on: P. aeruginosa MUW 700 cAmpC-positive; experiment: combination disc test CDT-AmpC; type: cell-based; conditions: Pseudomonas aeruginosa, read-out: Diameter of inhibition zone, CAZ-30 disc with agent; for zone of inhibition at 100 µg/disc: agent 0.1 mg per disc
# [21] = tested on: E. coli 77 CMY-2-positive; experiment: combination disc test CDT-AmpC; type: cell-based; conditions: Escherichia coli, read-out: Diameter of inhibition zone, CAZ-30 disc with agent; for zone of inhibition at 100 µg/disc: agent 0.1 mg per disc
# [22] = tested on: P. aeruginosa MUW 700 cAmpC-positive; experiment: checkerboard microdilution, antibiotic plus tested agent; type: cell-based, Pseudomonas aeruginosa
# How it was run: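 β-lactam 1–64 mg/L × agent/PBA 4–16 mg/L checkerboard; meropenem vs carbapenemase producers, ceftazidime vs AmpC producer; imipenem, ertapenem added for selected agents. Readout: combination MICs, FICI (average and lowest); off-scale MICs taken as next doubling.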
# [23] = 0.4 mg per disc, 9 mm disc (linezolid 0.03 mg, 6 mm disc), - no zone, read-out: Diameter of inhibition zone
# [24] = 0.4 mg per disc, 9 mm disc (fluconazole 0.025 mg, 6 mm disc), - no zone, read-out: Diameter of inhibition zone
Structure (SMILES),MIC [1],MIC [2],MIC [3],MIC [4],MIC [5],zone of inhibition at 0.4 mg/disc [5],zone of inhibition at 0.4 mg/disc [6],MIC [7],MIC [8],MIC [9],MIC [10],MIC [11],MIC [12],MIC [13],MIC [14],MIC [15],MIC [16],MIC [17],MIC [18],Average FICI with ceftazidime [22],also measured
OB(O)c1cc(F)cc(B(O)O)c1 [2b],400 µg/mL,400 µg/mL,400 µg/mL,100 µg/mL,50 µg/mL,19 mm,17 mm,> 400 µg/mL,> 400 µg/mL,> 400 µg/mL,> 400 µg/mL,> 400 µg/mL,> 400 µg/mL,400 µg/mL,400 µg/mL,> 400 µg/mL,> 400 µg/mL,> 400 µg/mL,> 400 µg/mL,0.35,"zone of inhibition at 0.4 mg/disc [2, 23]: 14 mm; zone of inhibition at 0.4 mg/disc [3, 23]: 15 mm; zone of inhibition at 0.4 mg/disc [4]: 14 mm; zone of inhibition at 300 µg/disc [19]: 19 mm; zone of inhibition at 100 µg/disc [20]: 18 mm; zone of inhibition at 100 µg/disc [21]: 21 mm; Interpretation of the average FICI with ceftazidime [22]: S (FICI ≤ 0.5, synergy); Interpretation of the lowest FICI with ceftazidime [22]: S (FICI ≤ 0.5, synergy); The lowest FICI with ceftazidime [22]: 0.26"
OB(O)c1cc(F)c(B(O)O)c(F)c1 [1d],> 400 µg/mL,> 400 µg/mL,200 µg/mL,25 µg/mL,25 µg/mL,21 mm,15 mm,200 µg/mL,200 µg/mL,200 µg/mL,400 µg/mL,200 µg/mL,200 µg/mL,400 µg/mL,400 µg/mL,400 µg/mL,400 µg/mL,400 µg/mL,> 400 µg/mL,0.43,"zone of inhibition at 0.4 mg/disc [7, 24]: 14 mm; zone of inhibition at 0.4 mg/disc [8, 24]: 16 mm; zone of inhibition at 0.4 mg/disc [12, 24]: 13 mm; zone of inhibition at 100 µg/disc ([19]; agent 0.1 mg per disc): 12 mm; zone of inhibition at 100 µg/disc [20]: 17 mm; zone of inhibition at 100 µg/disc [21]: 20 mm; Interpretation of the average FICI with ceftazidime [22]: S (FICI ≤ 0.5, synergy); Interpretation of the lowest FICI with ceftazidime [22]: S (FICI ≤ 0.5, synergy); The lowest FICI with ceftazidime [22]: 0.27"
"OB(O)c1ccc(B(O)O)c(B(O)O)c1 [4b, benzene-1,2,4-triboronic]",200 µg/mL,200 µg/mL,200 µg/mL,25 µg/mL,200 µg/mL,20 mm,18 mm,> 400 µg/mL,> 400 µg/mL,> 400 µg/mL,> 400 µg/mL,> 400 µg/mL,> 400 µg/mL,> 400 µg/mL,> 400 µg/mL,> 400 µg/mL,> 400 µg/mL,> 400 µg/mL,> 400 µg/mL,0.30,"zone of inhibition at 0.4 mg/disc [4]: 20 mm; zone of inhibition at 300 µg/disc [19]: 14 mm; zone of inhibition at 300 µg/disc ([20]; agent 0.3 mg per disc): 21 mm; zone of inhibition at 300 µg/disc ([21]; agent 0.3 mg per disc): 21 mm; Interpretation of the average FICI with ceftazidime [22]: S (FICI ≤ 0.5, synergy); Interpretation of the lowest FICI with ceftazidime [22]: S (FICI ≤ 0.5, synergy); The lowest FICI with ceftazidime [22]: 0.15"
